From article PMC4658182, “The Synthetic Antimicrobial Peptide 19-2.5 Interacts with Heparanase and Heparan Sulfate in Murine and Human Sepsis” (PLoS ONE, 2015)

What was measured:
[1] = Isothermal titration calorimetry, binding to HS-fragments; settings: vs peptide 19–2.5 (Table 2)
Experimental: Isothermal titration calorimetry (ITC) experiments were performed as previously described. Briefly, the binding of peptide 19–2.5 to heparanase or HS-fragments was recorded by measuring the enthalpy change of the reaction at 37°C. For this, a total of 100 μg/ml heparanase (R&D Systems Europe Ltd., Abingdon, United Kingdom) and 200 μg/ml HS-fragments (H7640 Sigma-Aldrich, St. Louis, MO, USA) were dispersed into the calorimetric cell, and 2 mM peptide 19–2.5 was titrated to this dispersion stepwise in 3 μl portions. After exploring experiments, the concentration of HS was 100 μg/ml titrated with 1.5 μl of peptide 19–2.5 (2 mM) 20 times at 37°C.
Fig 5 Isothermal titration calorimetry (ITC). For the ITC experiments, 2 mM peptide 19–2.5 was titrated to this dispersion stepwise in 3 μl portions into (A) 200 μg/ml heparan sulfate-fragments (HS) and (B) 100 μg/ml heparanase (Hep). In each titration, the resulting heat signals P were recorded (peak downwards are exothermic, peaks upwards endothermic reactions) against time (min) and presented in the top parts of Fig 5A and 5B. The integrated enthalpy changes ΔH versus [peptide]:[HS-fragments] (A) and [peptide]:[heparanase] (B) concentration ratios of the single titrations are illustrated in the bottom parts of Fig 5A and 5B.

[2] = cited from earlier work
Excerpt: Sepsis is a common and life-threatening disease especially in medical and surgical intensive care patients with mortality rates up to 60% [1]. It is characterized by a systemic inflammatory response to infection triggered by both pathogen-associated molecular patterns (PAMPs) as well as endogenous danger-associated molecular patterns (DAMPs). Here, heparan sulfate and the enzyme heparanase play key roles. Heparan sulfates are linear polysaccharides composed of repeating disaccharide subunits, which are D-glucosamine and D-glucuronic acid in their unmodified form. They are attached ...

heparanase = heparanase (UniProt Q9Y251); experiment: ITC; 2 mM peptide 19-2.5 titrated stepwise in 3 ul portions into 100 ug/ml heparanase in the calorimetric cell, 37 °C
Chain of heparanase (Q9Y251 36-543): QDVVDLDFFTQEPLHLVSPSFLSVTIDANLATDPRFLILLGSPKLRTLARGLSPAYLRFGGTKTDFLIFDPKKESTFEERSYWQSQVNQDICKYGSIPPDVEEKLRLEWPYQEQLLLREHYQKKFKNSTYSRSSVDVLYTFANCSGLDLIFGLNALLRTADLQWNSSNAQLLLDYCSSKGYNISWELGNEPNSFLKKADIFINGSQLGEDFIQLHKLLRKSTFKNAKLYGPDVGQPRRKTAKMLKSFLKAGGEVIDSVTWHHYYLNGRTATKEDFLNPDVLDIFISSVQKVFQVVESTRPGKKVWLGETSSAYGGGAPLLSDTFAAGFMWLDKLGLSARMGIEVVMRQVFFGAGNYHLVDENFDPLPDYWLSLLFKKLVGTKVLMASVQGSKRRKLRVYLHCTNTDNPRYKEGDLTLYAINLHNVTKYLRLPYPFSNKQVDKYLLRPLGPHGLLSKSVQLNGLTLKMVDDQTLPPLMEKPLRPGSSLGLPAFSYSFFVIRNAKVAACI

## GCKKYRRFRWKFKGK [peptide 19–2.5gek, peptide variant with the hydrophobic C-terminal of the peptide, FWFWG, removed]
[1]
  binding constant to HS-fragments on removal of C-terminal FWFWG: dramatically decreases

## LL-37: naturally occurring antimicrobial cathelicidin peptide LL-37
[2]
  neutralization of pro-inflammatory action of PAMPs and DAMPs: neutralizes the pro-inflammatory action of PAMPs and DAMPs
[2]; limits therapeutic use
  toxicity: intrinsic toxicity

B1: synthetic antimicrobial peptide 19-2.5 (peptide)
peptide: GCKKYRRFRWKFKGKFWFWG
heparanase
  dH (at the beginning of the titration): -5.98 kcal/mol
